Read-outs that look alike come from different tables or passages of the source.
Legend:
[1] = test system: Cyclooxygenase 2/Cyclooxygenase 1; conditions: cited from earlier work
[2] = collected values of NSAIDs; cited from earlier work
[3] = collected values of NSAIDs; cited from earlier work; remark: listed apart in the source
[4] = test system: Carageenan - induced rat paw edema; assay: Carageenan-induced rat paw edema (anti-inflammatory activity); assay type: in vivo; conditions: in words, compared to parent drug
[5] = in words; pre-treatment; Navarro et al. 1994; cited from earlier work
[6] = IC50 (µg/ml) of COX2 divided by IC50 for COX1, values below 1 indicate selectivity for COX2, from Drugs of Today Vol. 32 Suppl. D 1996 p. 5

O=C([O-])c1ccccc1O.[Na+] [Sodium salicylate]
Cyclooxygenase 2/Cyclooxygenase 1 ratio [1, 6]: 2.8

Cc1c(Cl)cccc1Nc1ccccc1C(=O)O [Tolfenamic acid]
Cyclooxygenase 2/Cyclooxygenase 1 ratio [1, 6]: 16.7

CC(=O)Nc1ccc(O)cc1 [Paracetamol]
Cyclooxygenase 2/Cyclooxygenase 1 ratio [1, 6]: 7.4

Cc1ccc(C(=O)c2ccc(CC(=O)O)n2C)cc1 [Tolmetin]
Cyclooxygenase 2/Cyclooxygenase 1 ratio [1, 6]: 175

CC(C(=O)O)c1ccc2c(c1)[nH]c1ccc(Cl)cc12 (stereo not drawn) [Carprofen]
Cyclooxygenase 2/Cyclooxygenase 1 ratio [1]: 1

CN1C(C(=O)Nc2ccccn2)=C(O)c2ccccc2S1(=O)=O [Piroxicam]
Cyclooxygenase 2/Cyclooxygenase 1 ratio [1]: 250

CC(C)Cc1ccc(C(C)C(=O)O)cc1 (stereo not drawn) [Ibuprofen]
LD50 [2]: 923 mg/kg | ED50 [3]: 13.5 mg/kg

O=C([O-])Cc1ccccc1Nc1c(Cl)cccc1Cl.O=C([O-])Cc1ccccc1Nc1c(Cl)cccc1Cl.[Zn+2] [Diclofenac-Zinc]
anti-inflammatory activity ([4]; listed as Diclofenac-Zinc complex): much more than the parent drug | anti-inflammatory activity ([4]; listed as Zinc-diclofenac complex): more potent anti-inflammatory activity than diclofenac

O=C(O)c1ccccc1Nc1cccc(C(F)(F)F)c1 [Flufenamic acid]
LD50 [2]: 249 mg/kg | Therapeutic Index [2]: 17 | ED50 [3]: 14.7 mg/kg

O=C(c1ccccc1)c1cccc(NS(=O)(=O)C(F)F)c1 [Diflumidone]
LD50 [2]: 750 mg/kg | Therapeutic Index [2]: 20 | ED50 [3]: 38.0 mg/kg

CC(C(=O)O)c1ccc(-c2ccccc2)c(F)c1 (stereo not drawn) [Flurbiprofen]
Cyclooxygenase 2/Cyclooxygenase 1 ratio [1]: 1.3

CC(=O)NCCCCCC(=O)[O-].CC(=O)NCCCCCC(=O)[O-].[Zn+2] [Zinc acexamate]
overall Severity of lessions induced by NSAIDS [5]: significantly decreased

CS(=O)(=O)Nc1ccc([N+](=O)[O-])cc1Oc1ccccc1 [Nimesulide]
ED50 [3]: 1.25 mg/kg

COc1ccc2c(c1)c(CC(=O)O)c(C)n2C(=O)c1ccc(Cl)cc1 [Indomethacin]
LD50 [2]: 210 mg/kg | ED50 [3]: 2.95 mg/kg

CC1=C(CC(=O)O)c2cc(F)ccc2/C1=C\c1ccc([S+](C)[O-])cc1 (stereo not drawn) [Sulindac]
Cyclooxygenase 2/Cyclooxygenase 1 ratio [1, 6]: 100

COc1ccc2cc([C@H](C)C(=O)O)ccc2c1 [Naproxen, (+) -2-(6-Methoxy-2-haphthyl) propionic acid]
ED50 [3]: 2.10 mg/kg

CC(=O)Oc1ccccc1C(=O)O [Acetylsalicylic acid]
LD50 [2]: 1520 mg/kg | Therapeutic Index [2]: 14 | ED50 [3]: 135.0 mg/kg | Cyclooxygenase 2/Cyclooxygenase 1 ratio [1, 6]: 166

— patent EP0987023A1, “Transition metal complexes of non steroidal anti-inflammatory drugs” (PANACEA BIOTEC LIMITED, priority 1998, dated 2000)
